Source: patent US5595983A, “Substituted piperazine 2-carboxylic acids useful in the treatment of central nervous system disorders” (British Technology Group Limited, priority 1984, dated 1997)
Read-outs that look alike come from different tables or passages of the source. Blank lines part the entries; values can stand above or below the compound they belong to.

Assays:
[1] = test system: 3-mercaptopropionate-induced convulsions; assay: Anticonvulsant activity against 3-mercaptopropionate-induced convulsions in mice; type: in vivo; conditions: for Anti-convulsant Activity (mice): relative anticonvulsant potency: mice injected with 3-MP 100 mg/kg, 3-MP and phosphonates subcutaneously, relative to AP7 = 1.0
Method: ^2 Relative anticonvulsant potencies of substances in mice injected
with 3mercaptopropionic acid (3MP), 100 mg/kg; 3MP and the phosphonates

[2] = test system: motoneurones in the spinal cord; assay: Depression of monosynaptic (MS) and polysynaptic (PS) excitation of motoneurones in isolated hemisected spinal cord, elicited by dorsal root stimulation; type: cell-based, rat; conditions: for inhibition at 500 µM: test conc. 500 μM; for inhibition at 100 µM: test conc. 100 μM
Source text: To evaluate actions of substances at amino acid receptors on nerve cells (neurones), the substances may be tested on spinal cord neurones, which have similar characteristics to nerve cells in the brain.
^1 Monosynaptic (MS) and polysynaptic (PS) excitation of motoneurones
in the spinal cord from 4-8 day old rats was elicited by electrical
stimulation of a dorsal root and recorded from the corresponding ventral
root. Figures relate to the depression of the magnitude of the two
components as measured respectively from oscilloscope traces and chart

[3] = test system: ventral root synaptic potentials in spinal cord; assay: Relative potency as depressants of spontaneous and dorsal root-evoked ventral root synaptic potentials in spinal cord of 4-day-old rat; type: cell-based; conditions: 4-day-old rat spinal cord, bath administration, relative to AP5 = 1.0
Source text: (§1) ^1 Relative potencies of substances as antagonists of NMDAinduced
(§2) motoneuronal depolarization and as depressants of spontaneous and dorsal
(§3) rootevoked ventral root synaptic potentials in spinal cord of 4day-old
(§4) rat; bath administration of drugs.
(§5) 1 Relative potencies of substances as antagonists of NMDA-induced motoneuronal depolarization and as depressants of spontaneous and dorsal root-evoked ventral root synaptic potentials in spinal cord of 4-day-old rat; bath administration of drugs.

neuronal NMDA receptors = assay: Relative potency as antagonists of NMDA-induced motoneuronal depolarization in spinal cord of 4-day-old rat; type: cell-based; conditions: 4-day-old rat spinal cord; bath administration; relative to AP5 = 1.0 (higher = more potent)
Source text: as §1, §2, §3, §4, §5

[4] = test system: N-methyl-D-aspartate (NMDA) receptors; assay: Reversal of NMDA-induced motoneuronal depolarization, isolated 4-8 day old rat spinal cord; type: cell-based; conditions: Table 2
kainate (K) receptors = assay: Reversal of kainate-induced motoneuronal depolarization, isolated 4-8 day old rat spinal cord; type: cell-based; conditions: Table 2
[5] = test system: quisqualate (Q) receptors; assay: Reversal of quisqualate-induced motoneuronal depolarization, isolated 4-8 day old rat spinal cord; type: cell-based; conditions: Table 2
[6] = monosynaptic component, 4-8 day old rat spinal cord, read-out: Synaptic Excitation Percent depression MS
[7] = polysynaptic component, 4-8 day old rat spinal cord, read-out: Synaptic Excitation Percent depression PS

SMILES: NC(CCCP(=O)(O)O)C(=O)O (racemic) [AP5, 2-amino-5-phosphonopentanoic acid, reference compound]
Anti-convulsant Activity (mice): relative anticonvulsant potency [1]: 0.1 | inhibition at 2 µM ([2]; polysynaptic component, test conc. 2 μM, 4-8 day old rat spinal cord, read-out: Synaptic Excitation Percent depression PS): 27%

SMILES: NC(CCCCCP(=O)(O)O)C(=O)O (racemic) [AP7, 2-amino-7-phosphonoheptanoic acid, reference compound]
Depression of synaptic excitation in rat spinal cord: relative potency (Synaptic) [3]: 0.75 | Depression of NMDA-induced excitation in rat spinal cord: relative potency (NMDA) (neuronal NMDA receptors): 0.75 | inhibition at 3 µM ([2]; polysynaptic component, test conc. 3 μM, 4-8 day old rat spinal cord, read-out: Synaptic Excitation Percent depression PS): 28%

SMILES: O=C(O)C1CN(CCCP(=O)(O)O)CCN1 (racemic) [CPP, 3-((±)-2-carboxypiperazin-4-yl)propyl-1-phosphonic acid]
Depression of synaptic excitation in rat spinal cord: relative potency (Synaptic) [3]: 4 | Anticonvulsant activity compared with AP7 ([1]; 3-mercaptopropionate-induced convulsions in mice, from Table 3): significantly higher anticonvulsant activity than AP7 | Anti-convulsant Activity (mice): relative anticonvulsant potency [1]: 2.5-5.0 | Depression of NMDA-induced excitation in rat spinal cord: relative potency (NMDA) (neuronal NMDA receptors): 6 | Potency as antagonist of polysynaptic spinal excitation compared with AP5 and AP7 ([2]; Table 2): more potent | inhibition at 0.5 µM ([2]; polysynaptic component, test conc. 0.5 μM (printed 0 · 5), 4-8 day old rat spinal cord, read-out: Synaptic Excitation Percent depression PS): 28% | Potency as antagonist of NMDA compared with AP5 and AP7 [4]: more potent

SMILES: O=C(O)C1CN(CCCS(=O)(=O)O)CCN1 (racemic) [CPS, 3-(±)-2-carboxypiperazin-4-yl)-propane-1-sulphonic acid]
inhibition at 500 µM [2, 6]: 6% | inhibition at 500 µM [2, 7]: 32%

Potency as antagonist of kainate-induced depolarizations compared with γDGG (kainate (K) receptors): more potent antagonist | Potency as antagonist of quisqualate-induced depolarizations compared with γDGG [5]: more potent antagonist
SMILES: O=C(O)C1NCCN(C(=O)c2ccc(Br)cc2)C1C(=O)O (centres unmarked) [BBP, 4-(4-bromobenzoyl)-piperazine-2,3-dicarboxylic acid]
Potency as depressant of monosynaptic excitation compared with γDGG ([2]; Table 2): more potent as a depressant of monosynaptic excitation | inhibition at 100 µM [2, 6]: 24% | inhibition at 100 µM [2, 7]: 8%

SMILES: N[C@H](CCC(=O)NCC(=O)O)C(=O)O [γDGG, γ-D-glutamylglycine, reference compound]
inhibition at 700 µM ([2]; monosynaptic component, test conc. 700 μM, 4-8 day old rat spinal cord, read-out: Synaptic Excitation Percent depression MS): 24%
